This note sets out measurements from patent US10399995B2, “1,4-Oxazines useful as selective BACE1 inhibitors” (Eli Lilly and Company, priority 2016, dated 2019).

A word on the pIC50: it is −log10 of the IC50, conventionally taken in molar units.

The target of one test is T1, BACE1 (Homo sapiens, UniProt P56817).
T1 construct: endogenous in cells; host or cells: SH-SY5Y (ATCC CRL2266) stably expressing human APP695Wt
In words: SH-SY5YAPP695Wt Whole Cell Assay. It counts as cell-based. Particulars: SH-SY5Y cells expressing human APP695Wt, 24 hours, conditioned media, mean ± standard deviation of the mean, n=3. The method, then:
(§1) To assess selectivity of BACE1 over BACE2, the test compound is evaluated in FRET assays using specific substrates for BACE1 and BACE2 as described below. For in vitro enzymatic and cellular assays, the test compound is prepared in DMSO to make up a 10 mM stock solution. The stock solution is serially diluted in DMSO to obtain a ten-point dilution curve with final compound concentrations ranging from 10 μM to 0.05 nM in a 96-well round-bottom plate before conducting the in vitro enzymatic and whole cell assays.
The routine whole cell assay for the measurement of inhibition of BACE1 activity utilizes the human neuroblastoma cell line SH-SY5Y (ATCC Accession No. CRL2266) stably expressing a human APP695Wt cDNA. Cells are routinely used up to passage number 6 and then discarded.
SH-SY5YAPP695Wt cells are plated in 96 well tissue culture plates at 5.0×10^4 cells/well in 200 μL culture media (50% MEM/EBSS and Ham's F12, 1× each sodium pyruvate, non-essential amino acids and NaHCO3 containing 10% FBS). The following day, media is removed from the cells, fresh media added then incubated at 37° C. for 24 hours in the presenceabsence of test compound at the desired concentration range.
At the end of the incubation, conditioned media are analyzed for evidence of beta-secretase activity by analysis of Abeta peptides 1-40 and 1-42 by specific sandwich ELISAs. […]

The target of a further test is T2, Human BACE1(1-460):Fc (Homo sapiens, UniProt P56817).
T2 construct: made in house; host or cells: HEK293 (transient transfection, purified from conditioned media by Protein A)
T2 sequence (P56817 22-460): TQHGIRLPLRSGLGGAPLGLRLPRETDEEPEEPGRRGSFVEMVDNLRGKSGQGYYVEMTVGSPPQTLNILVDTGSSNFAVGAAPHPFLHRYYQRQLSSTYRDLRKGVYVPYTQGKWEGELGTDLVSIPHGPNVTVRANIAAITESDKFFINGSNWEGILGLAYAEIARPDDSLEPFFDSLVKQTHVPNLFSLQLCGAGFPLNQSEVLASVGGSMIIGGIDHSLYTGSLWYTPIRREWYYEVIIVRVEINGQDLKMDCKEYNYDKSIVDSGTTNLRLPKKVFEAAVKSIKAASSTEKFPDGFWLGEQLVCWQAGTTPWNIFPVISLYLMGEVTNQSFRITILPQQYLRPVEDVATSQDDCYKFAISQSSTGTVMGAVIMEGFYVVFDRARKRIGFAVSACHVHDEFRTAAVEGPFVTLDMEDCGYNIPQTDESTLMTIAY
In words: BACE1 FRET Assay. The following applies: purified recombinant huBACE1:Fc, pH 4.6, mean ± standard deviation of the mean, n=13. In kind it is biochemical. As for the experimental part:
as §1
(§2) Human BACE1 (accession number: AF190725) and human BACE2 (accession number: AF 204944) are cloned from total brain cDNA by RT-PCR. The nucleotide sequences corresponding to amino acid sequences #1 to 460 are inserted into the cDNA encoding human IgG1 (Fc) polypeptide (Vassar et al., Science, 286, 735-742 (1999)). […]
(§3) Conditioned media of HEK293 cells transiently transfected with huBACE1:Fc or huBACE2:Fc cDNA are collected. […] The purity of the final product is assessed by electrophoresis in 4-20% Tris-Glycine SDS-PAGE. […]
Serial dilutions of the test compound are prepared as described above. […] The RFU of the mixture at time 0 is recorded at excitation wavelength 355 nm and emission wavelength 460 nm, after brief mixing on a plate shaker. […] The RFU at the end of incubation is recorded with the same excitation and emission settings used at time 0. […]

Another test has as its target T3, human BACE2 (1-460):Fc (Homo sapiens, UniProt Q9Y5Z0).
T3 construct: made in house; host or cells: HEK293 (transient transfection, purified from conditioned media by Protein A)
T3 sequence (Q9Y5Z0 21-460): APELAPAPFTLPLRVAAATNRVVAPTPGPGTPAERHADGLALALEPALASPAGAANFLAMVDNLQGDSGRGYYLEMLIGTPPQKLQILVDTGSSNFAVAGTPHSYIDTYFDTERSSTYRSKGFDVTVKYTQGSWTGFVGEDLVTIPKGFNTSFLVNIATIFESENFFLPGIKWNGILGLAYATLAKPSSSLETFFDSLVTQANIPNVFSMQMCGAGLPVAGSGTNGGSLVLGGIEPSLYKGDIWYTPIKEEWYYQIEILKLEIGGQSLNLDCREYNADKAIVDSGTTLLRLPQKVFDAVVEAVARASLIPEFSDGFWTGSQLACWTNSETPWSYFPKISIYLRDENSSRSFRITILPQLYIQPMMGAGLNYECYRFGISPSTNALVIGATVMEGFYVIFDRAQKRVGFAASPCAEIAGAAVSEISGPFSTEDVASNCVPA
Kind of test: BACE2 TMEM27 FRET Assay. It counts as biochemical. The method, then:
as §1, §2, §3
Serial dilutions of test compound are prepared as described above. […] The RFU of the mixture at time 0 is recorded at excitation wavelength 430 nm and emission wavelength 535 nm. […] The RFU at the end of incubation is recorded with the same excitation and emission settings used at time 0. […]

The structures appear in SMILES notation. pIC50: −log10 of the molar value. Where two headings read alike, the source gives them in different places.

T1 sequence (P56817 46-501): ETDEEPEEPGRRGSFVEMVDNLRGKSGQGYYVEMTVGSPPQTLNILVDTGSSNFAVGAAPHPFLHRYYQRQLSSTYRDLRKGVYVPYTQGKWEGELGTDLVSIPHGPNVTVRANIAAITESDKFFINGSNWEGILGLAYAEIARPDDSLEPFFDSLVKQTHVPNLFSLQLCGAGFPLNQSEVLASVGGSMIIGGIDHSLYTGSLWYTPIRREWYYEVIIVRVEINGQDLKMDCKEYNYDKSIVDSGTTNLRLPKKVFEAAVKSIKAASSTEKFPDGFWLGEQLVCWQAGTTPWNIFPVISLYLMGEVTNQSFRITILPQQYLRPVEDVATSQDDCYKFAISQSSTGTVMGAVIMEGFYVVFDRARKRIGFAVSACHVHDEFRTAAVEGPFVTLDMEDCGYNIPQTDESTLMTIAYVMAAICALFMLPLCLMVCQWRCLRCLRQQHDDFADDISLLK

Consider `C[C@@]1(c2cc(NC(=O)c3nc4ccc(C#N)nc4s3)ccc2F)CO[C@@](C)(C(F)(F)F)C(N)=N1` [Example 1, N-[3-[(3R,6R)-5-Amino-3,6-dimethyl-6-(trifluoromethyl)-2H-1,4-oxazin-3-yl]-4-fluoro-phenyl]-5-cyano-thiazolo[5,4-b]pyridine-2-carboxamide], for which the pIC50 is 8.73 on BACE1 (read-out: IC50 for SH-SY5YAPP695Wt A-beta (1-40) ELISA); 8.45 at BACE1 (read-out: IC50 for SH-SY5YAPP695Wt A-beta (1-42) ELISA); 8.09 at Human BACE1(1-460):Fc; 6.35 on human BACE2 (1-460):Fc (TMEM27 LucY FRET assay, huBACE2:Fc, pH 4.6, mean ± standard deviation of the mean, n=6). Moreover, at human BACE2 (1-460):Fc (selectivity for BACE1 over BACE2), the “ratio of BACE1 (FRET IC50 enzyme assay) to BACE2 (TMEM27 LucY FRET assay)” value is given as “approximately 50 fold”.
